Results taken from paper PMC8064090 (Biomolecules, 2021).
Like-named read-outs stand apart in the source and are kept apart here.

Columns and labels:
[1] = target: HIV-1 PR MUT-2 (M46I, I54V, L76V, V82A, L33F, L10F) (Human immunodeficiency virus type 1 group M subtype C, UniProt O12158, I538V/L494F/L517F/L560V/M530I/V566A); assay: biochemical
Protocol: (§1) HIV-1 PR activity was measured by adding a purified enzyme (100–300 nM) to 300 µM of the chromogenic substrate Lys-Ala-Arg-Val-Nle-p-nitro-Phe-Glu-Ala-Nle amide (Sigma-Aldrich, St. Louis, MO, USA) dissolved in buffer D (50 mM sodium acetate buffer containing 100 mM NaCl (pH 5.0)) at 37 °C. The change in absorbance upon hydrolysis of the substrate by HIV-1 PR was monitored, and an extinction coefficient of 1800 M-1 cm-1 at a wavelength of 300 nm was used to convert the absorbance change to reaction rates. […] The data obtained were analyzed by plotting the reciprocal of substrate hydrolysis against substrate concentration (Lineweaver–Burk method to determine the Km and Kcat) and inhibitor concentration (Dixon method to determine the Ki) respectively.

[2] = system: HIV-1 PR MUT-3 (M46I, I54V, L76V, V82A, L90M, F53L); assay: biochemical; conditions: MUT-3; Ki of mutant/Ki of WT
Protocol: as §1

[3] = target: T1, HIV-1 PR MUT-1 (M46I, I54V, V82A, L10F) (Human immunodeficiency virus type 1 group M subtype C, UniProt O12158, I538V/L494F/M530I/V566A); assay: biochemical
T1 sequence (O12158 485-583 L494F/M530I/I538V/V566A): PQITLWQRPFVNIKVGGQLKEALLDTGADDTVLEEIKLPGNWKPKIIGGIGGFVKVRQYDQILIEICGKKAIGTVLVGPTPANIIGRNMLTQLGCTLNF
Protocol: as §1

[4] = target: T2, HIV-1 PR MUT-3 (M46I, I54V, L76V, V82A, L90M, F53L) (Human immunodeficiency virus type 1 group M subtype C, UniProt O12158, F537L/I538V/L560V/L574M/M530I/V566A); assay: biochemical
T2 sequence (O12158 485-583 M530I/F537L/I538V/L560V/V566A/L574M): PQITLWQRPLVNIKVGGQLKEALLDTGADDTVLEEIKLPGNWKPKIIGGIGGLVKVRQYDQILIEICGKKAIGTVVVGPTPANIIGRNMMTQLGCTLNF
Protocol: as §1

[5] = system: HIV-1 PR MUT-1 (M46I, I54V, V82A, L10F); assay: biochemical; conditions: MUT-1; Ki of mutant/Ki of WT
Protocol: as §1

[6] = system: HIV-1 PR MUT-2 (M46I, I54V, L76V, V82A, L33F, L10F); assay: biochemical; conditions: MUT-2; Ki of mutant/Ki of WT
Protocol: as §1

[7] = target: multidrug-resistant forms of HIV-1 subtype B PR harboring numerous major and minor mutations; conditions: cited from earlier work
[8] = target: wild-type subtype B HIV-1 PR; conditions: cited from earlier work
[9] = target: T3, wild type (WT) South African HIV-1 subtype C protease (HIV-1 PR) (Human immunodeficiency virus type 1 group M subtype C, UniProt O12158); assay: Enzyme inhibition assay with chromogenic substrate (Dixon method), wild type PR; format: biochemical; conditions: for Relative Resistance: WT, Ki of mutant/Ki of WT
T3 sequence (O12158 485-583): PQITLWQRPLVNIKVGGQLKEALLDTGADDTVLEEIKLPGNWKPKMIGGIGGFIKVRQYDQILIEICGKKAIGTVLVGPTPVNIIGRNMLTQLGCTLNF
Protocol: as §1

[10] = target: T3, wild type (WT) South African HIV-1 subtype C protease (HIV-1 PR); assay: Intrinsic tryptophan fluorescence quenching assay, wild type PR; format: binding
Protocol: (§2) Fluorescent spectra were recorded as described previously using a PerkinElmer LS 55 spectrometer with a 1.0 cm quartz cell (PerkinElmer, Waltham, MA, USA) and connected to a thermostat-controlled bath. This assay utilized the intrinsic tryptophan (Trp) fluorescence by causing the excitation of the π–π* transition in the tryptophan residues. Two Trp residues are found at positions 6 and 42 in each monomer of HIV-1 PR. Trp 6 is located close to the active site, and Trp 42 is found close to the flap of the HIV-1 PR. The position of the Trp residues on the enzyme surface makes them good probes in monitoring changes in the HIV-1 PR tertiary structure. The protein was excited at 295 nm, and fluorescence measurements were recorded from 300 to 420 nm at room temperature (25 °C). The excitation and emission slit widths were set at 5 nm, and the fluorescence spectra were acquired at 500 nm/min. The obtained fluorescence data was corrected and smoothened by running control samples of the buffer. For the fluorescence quenching study, […] of HIV-1 PR and varying inhibitor concentration from 10 to 500 nM were used. For every reaction, a new enzyme solution was used. The decrease in intrinsic Trp fluorescence (F0–F) at each concentration of inhibitor was fitted to the equation (F0–F) = ΔFmax/(1 + (Ki/[I]) to determine Ki and ΔFmax values using the Origin(Pro), 2019 (OriginLab Corporation, Northampton, MA, USA). The Stern–Volmer quenching constants (Ksv) were also calculated by fitting the data into the equation F0/F = 1 + Ksv (Q). The Stern–Volmer constant reports the accessibility of fluorophores to a quencher and the solvent accessibility of the fluorophore. Thus, it is an essential tool that can be used to probe the conformational changes around a fluorophore in proteins. […] The inner filter effect was corrected by using the formula Fc = Fantilog[(Aex + Aem)/2], where Fc is the corrected measurement and F is the measured fluorescence intensities, respectively, Aex is solution absorbance at the excitation, and Aem emission wavelengths.

[11] = target: T1, HIV-1 PR MUT-1 (M46I, I54V, V82A, L10F); assay: biochemical; format: binding, HIV-1 subtype C; design: The HIV-1 PR is a 99 amino acid homodimer; made in house; host or cells: Escherichia coli (NEBExpress); conditions: for Stern–Volmer quenching constant (Ksv): MUT-1 HIV-1 PR
Protocol: as §2, with “used.” for “used. The decrease in intrinsic Trp fluorescence (F0–F) at each concentration of inhibitor was fitted to the equation (F0–F) = ΔFmax/(1 + (Ki/[I]) to determine Ki and ΔFmax values using the Origin(Pro), 2019 (OriginLab Corporation, Northampton, MA, USA). The Stern–Volmer quenching constants (Ksv) were also calculated by fitting the data into the equation F0/F = 1 + Ksv (Q). The Stern–Volmer constant reports the accessibility of fluorophores to a quencher and the solvent accessibility of the fluorophore. Thus, it is an essential tool that can be used to probe the conformational changes around a fluorophore in proteins.”

[12] = target: T2, HIV-1 PR MUT-3 (M46I, I54V, L76V, V82A, L90M, F53L); assay: biochemical; format: binding, HIV-1 subtype C; design: The HIV-1 PR is a 99 amino acid homodimer; made in house; host or cells: Escherichia coli (NEBExpress); conditions: for Stern–Volmer quenching constant (Ksv): MUT-3 HIV-1 PR
Protocol: as §2, with “used.” for “used. The decrease in intrinsic Trp fluorescence (F0–F) at each concentration of inhibitor was fitted to the equation (F0–F) = ΔFmax/(1 + (Ki/[I]) to determine Ki and ΔFmax values using the Origin(Pro), 2019 (OriginLab Corporation, Northampton, MA, USA). The Stern–Volmer quenching constants (Ksv) were also calculated by fitting the data into the equation F0/F = 1 + Ksv (Q). The Stern–Volmer constant reports the accessibility of fluorophores to a quencher and the solvent accessibility of the fluorophore. Thus, it is an essential tool that can be used to probe the conformational changes around a fluorophore in proteins.”

[13] = target: T4, HIV-1 PR MUT-2 (M46I, I54V, L76V, V82A, L10F, L33F) (Human immunodeficiency virus type 1 group M subtype C, UniProt O12158, I538V/L494F/L517F/L560V/M530I/V566A); assay: Intrinsic tryptophan fluorescence quenching assay, MUT-2 PR; format: binding, HIV-1 subtype C; conditions: MUT-2 HIV-1 PR; for Ki: tryptophan fluorescence, 25 °C
T4 construct: The HIV-1 PR is a 99 amino acid homodimer; made in house; host or cells: Escherichia coli (NEBExpress)
T4 sequence (O12158 485-583 L494F/L517F/M530I/I538V/L560V/V566A): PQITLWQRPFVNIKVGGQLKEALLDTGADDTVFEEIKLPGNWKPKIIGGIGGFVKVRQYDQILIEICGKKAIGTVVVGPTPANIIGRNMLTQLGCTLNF
Protocol: as §2, with “used.” for “used. The decrease in intrinsic Trp fluorescence (F0–F) at each concentration of inhibitor was fitted to the equation (F0–F) = ΔFmax/(1 + (Ki/[I]) to determine Ki and ΔFmax values using the Origin(Pro), 2019 (OriginLab Corporation, Northampton, MA, USA). The Stern–Volmer quenching constants (Ksv) were also calculated by fitting the data into the equation F0/F = 1 + Ksv (Q). The Stern–Volmer constant reports the accessibility of fluorophores to a quencher and the solvent accessibility of the fluorophore. Thus, it is an essential tool that can be used to probe the conformational changes around a fluorophore in proteins.”

[14] = target: wild type South African HIV-1 subtype C PR; conditions: previous study ref 71; cited from earlier work

HIV-1 PR MUT-2 (M46I, I54V, L76V, V82A, L33F, L10F) (Human immunodeficiency virus type 1 group M subtype C, UniProt O12158, I538V/L494F/L517F/L560V/M530I/V566A), sequence (O12158 485-583 L494F/L517F/M530I/I538V/L560V/V566A): as above

Cc1cccc(C)c1OCC(=O)N[C@@H](Cc1ccccc1)[C@@H](O)C[C@H](Cc1ccccc1)NC(=O)[C@H](C(C)C)N1CCCNC1=O [LPV, lopinavir]
Ki [1]: 52.6 ± 0.65 nM | Relative Resistance [2]: 35.80 | Ki [3]: 46.5 ± 0.14 nM | Ki [4]: 76.26 ± 0.09 nM | Relative Resistance [5]: 21.83 | Relative Resistance [6]: 24.71 | Ki [7]: 0.44 to 260 nM | Ki ([8]; wild-type subtype B HIV-1 PR): ~0.02 nM | Ki [9]: 2.13 ± 0.23 nM | Relative Resistance [9]: 1.00 | Ki [10]: 17.2 nM | Stern–Volmer quenching constant (Ksv) [10]: 0.02 nM⁻¹ | Ki [11]: 54.7 nM | Stern–Volmer quenching constant (Ksv) [11]: 0.004 nM⁻¹ | Ki [12]: 113 nM | Stern–Volmer quenching constant (Ksv) [12]: 0.003 nM⁻¹ | Stern–Volmer quenching constant (Ksv) [13]: 0.004 nM⁻¹ | Ki [13]: 79.5 nM | Ki [14]: 2.1 ± 0.2 nM

CC(C)CN(C[C@@H](O)[C@H](Cc1ccccc1)NC(=O)O[C@H]1CO[C@H]2OCC[C@H]21)S(=O)(=O)c1ccc(N)cc1 [DRV, darunavir]
Ki [1]: 7.8 ± 0.71 nM | Ki [3]: 5.53 ± 0.09 nM | Ki [4]: 11.5 ± 1.09 nM | Ki ([8]; wild type subtype B HIV-1 PR): ~0.005 nM | Ki [9]: 1.58 ± 0.11 nM | Relative Resistance [9]: 1.00 | Ki [10]: 8.12 nM | Stern–Volmer quenching constant (Ksv) ([10]; WT HIV-1 PR): 0.030 nM⁻¹ | Ki [11]: 26.3 nM | Stern–Volmer quenching constant (Ksv) [11]: 0.01 nM⁻¹ | Ki [12]: 44.7 nM | Stern–Volmer quenching constant (Ksv) [12]: 0.005 nM⁻¹ | Stern–Volmer quenching constant (Ksv) [13]: 0.009 nM⁻¹ | Ki [13]: 32.9 nM | Ki [14]: 1.4 ± 0.2 nM
